Data published in patent publication US10464925B2, “Methods to induce targeted protein degradation through bifunctional molecules” (Dana-Farber Cancer Institute, Inc., priority 2015, dated 2019).
Where two headings read alike, the source gives them in different places.

Tests used:
[1] = system: IKZF1 adjoined to nanoluciferase (Nluc); assay: IKZF1 Dual Luciferase Assay; assay type: cell-based; design: Nluc/Fluc IKZF1 Max Degradation: unit: %; conditions: 293 FT cells, 4 hours; for IC50: read-out: Nluc/Fluc IKZF1 IC50
CRBN-DDB1 = target: T1, CRBN-DDB1 (Homo sapiens, UniProt Q96SW2); assay: CRBN-DDB1 Ligand-Displacement AlphaScreen Assay (thalidomide competition); assay type: binding; conditions: read-out: CRBN alpha IC50;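 note: streptavidin donor and nickel chelate acceptor bead proximity signal after 30 min incubation, normalized with no-protein background as 0% and DMSO wells as 100% activity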
T1 construct: 6xHis (given for the complex); made in house; host or cells: Sf9 cells (Invitrogen), pFastBac

797 = assay: Cell viability, 797 cells (Table 4); assay type: cell-based; conditions: read-out: IC50 (nM) 797
[2] = target: T2, BRD4 adjoined to nanoluciferase (Nluc) (Homo sapiens, UniProt O60885+Q96SW2); assay: BRD4 Dual Luciferase Assay; assay type: cell-based;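 note: transduced reporter cells exposed to compound for 4 h, then Nluc and Fluc luminescence read, each normalized to DMSO controls and expressed as Nluc/Fluc ratio per well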
T2 construct: expressed in transfected cells

[3] = 4 hours, read-out: max degradation (dual luc)
[4] = read-out: BRD4 max degradation(%) Dual Luciferase

Row | Compound | IC50 (CRBN-DDB1) | IC50 797 | Dmax [2, 4] | also measured
1 | O=C1CCC(N2C(=O)c3cccc(O)c3C2=O)C(=O)N1 [Compound D-1, 2-(2,6-dioxopiperidin-3-yl)-4-hydroxyisoindoline-1,3-dione] | – | – | – | IC50 [1]: > 50000 nM
2 | O=C1CCC(N2C(=O)c3ccc([N+](=O)[O-])cc3C2=O)C(=O)N1 [Compound D-2, 2-(2,6-dioxopiperidin-3-yl)-5-nitroisoindoline-1,3-dione] | 4130 nM | – | – | IC50 [1]: > 50000 nM
3 | CC(=O)Nc1cccc2c1C(=O)N(C1CCC(=O)NC1=O)C2=O [Compound D-3, N-(2-(2,6-dioxopiperidin-3-yl)-1,3-dioxoisoindolin-4-yl)acetamide] | 667 nM | – | – | Nluc/Fluc IKZF1 Max Degradation [1]: 38.24
4 | Nc1cccc2c1C(=O)N(C1CCC(=O)NC1=O)C2=O [Compound D-4, 4-amino-2-(2,6-dioxopiperidin-3-yl)isoindoline-1,3-dione] | – | – | – | Nluc/Fluc IKZF1 Max Degradation [1]: 66.43
5 | CC(=O)Nc1ccc2c(c1)C(=O)N(C1CCC(=O)NC1=O)C2=O [Compound D-5, N-(2-(2,6-dioxopiperidin-3-yl)-1,3-dioxoisoindolin-5-yl)acetamide] | 266 nM | – | – | IC50 [1]: > 50000 nM
6 | Cc1nc2ccccc2c(=O)n1C1CCC(=O)NC1=O [Compound D-9, 3-(2-methyl-4-oxoquinazolin-3(4H)-yl)piperidine-2,6-dione] | 14500 nM | – | – | Nluc/Fluc IKZF1 Max Degradation [1]: 67.23
7 | O=C1CCC(N2C(=O)c3cccc([N+](=O)[O-])c3C2=O)C(=O)N1 [Compound D-10, 2-(2,6-dioxopiperidin-3-yl)-4-nitroisoindoline-1,3-dione] | 3250 nM | – | – | IC50 [1]: > 50000 nM
8 | Cc1nc2ccccc2c(=O)n1C1CC(=O)NC1=O [Compound D-11, 3-(2-methyl-4-oxoquinazolin-3(4H)-yl)pyrrolidine-2,5-dione] | 126000 nM | – | – | IC50 [1]: > 50000 nM
9 | O=C1CCC(N2C(=O)c3ccc(C(=O)O)cc3C2=O)C(=O)N1 [Compound D-13, 2-(2,6-dioxopiperidin-3-yl)-1,3-dioxoisoindoline-5-carboxylic acid] | – | – | – | IC50 [1]: > 50000 nM
10 | O=C1CCC(N2C(=O)c3cccc(F)c3C2=O)C(=O)N1 [Compound D-14, 2-(2,6-dioxopiperidin-3-yl)-4-fluoroisoindoline-1,3-dione] | 608 nM | – | – | IC50 [1]: > 50000 nM
11 | O=C1CCC(N2C(=O)c3ccc(C(=O)NCc4ccccc4)cc3C2=O)C(=O)N1 [Compound D-15, N-benzyl-2-(2,6-dioxopiperidin-3-yl)-1,3-dioxoisoindoline-5-carboxamide] | 619 nM | – | – | IC50 [1]: > 50000 nM
12 | O=C1CCC(N2C(=O)c3cccc(NCc4ccccc4)c3C2=O)C(=O)N1 [Compound D-16, 4-(benzylamino)-2-(2,6-dioxopiperidin-3-yl)isoindoline-1,3-dione] | 71.4 nM | – | – | Nluc/Fluc IKZF1 Max Degradation [1]: 67.23
13 | Cc1nc2cccc(N)c2c(=O)n1C1CCC(=O)NC1=O [Compound D-17, 3-(5-amino-2-methyl-4-oxoquinazolin-3(4H)-yl)piperidine-2,6-dione] | – | – | – | Nluc/Fluc IKZF1 Max Degradation [1]: 67.59
14 | CC(C)Nc1cccc2c1C(=O)N(C1CCC(=O)NC1=O)C2=O [Compound D-18, 2-(2,6-dioxopiperidin-3-yl)-4-(isopropylamino)isoindoline-1,3-dione] | 25.3 nM | – | – | Nluc/Fluc IKZF1 Max Degradation [1]: 41.1
15 | Cc1cccc2c1C(=O)N(C1CCC(=O)NC1=O)C2=O [Compound D-19, 2-(2,6-dioxopiperidin-3-yl)-4-methylisoindoline-1,3-dione] | 147 nM | – | – | Nluc/Fluc IKZF1 Max Degradation [1]: 63.37
16 | CCN(CC)c1cccc2c1C(=O)N(C1CCC(=O)NC1=O)C2=O [Compound D-21, 4-(diethylamino)-2-(2,6-dioxopiperidin-3-yl)isoindoline-1,3-dione] | 164 nM | – | – | Nluc/Fluc IKZF1 Max Degradation [1]: 17.98

Row | Compound | IC50 (CRBN-DDB1) | IC50 797 | Dmax [2, 4] | also measured
17 | O=C1CCC(N2C(=O)c3cccc(CNC(=O)C4CC4)c3C2=O)C(=O)N1 [Compound D-22, N-((2-(2,6-dioxopiperidin-3-yl)-1,3-dioxoisoindolin-4-yl)methyl)cyclopropanecarboxamide] | 375 nM | – | – | Nluc/Fluc IKZF1 Max Degradation [1]: 52.96
18 | Cc1cnc(Nc2ccc(N3CCN(C(=O)CCCNC(=O)COc4cccc5c4C(=O)N(C4CCC(=O)NC4=O)C5=O)CC3)cc2)nc1Nc1cccc(S(=O)(=O)NC(C)(C)C)c1 (centres unmarked) [dBET20] | – | 14700 nM | < 10% | Dmax [2, 3]: 7.04%
19 | Cc1sc2c(c1C)C(c1ccc(Cl)cc1)=N[C@@H](CC(=O)NCCCCCCCCOc1cccc3c1C(=O)N(C1CCC(=O)NC1=O)C3=O)c1nnc(C)n1-2 (some centres unmarked) [dBET21] | – | 630 nM | 21% | Emax ([2]; BRD4 remaining at Emax, read-out: BRD4− Emax (percent remaining)): 78.1%
20 | COC(=O)C[C@@H]1N=C(c2ccc(Cl)cc2)c2c(sc(C)c2C(=O)NCCCCNC(=O)COc2cccc3c2C(=O)N(C2CCC(=O)NC2=O)C3=O)-n2c(C)nnc21 (some centres unmarked) [dBET25] | – | 6860 nM | 42% | Dmax [2, 3]: 41.7%
21 | COC(=O)C[C@@H]1N=C(c2ccc(Cl)cc2)c2c(sc(C)c2C(=O)NCCCCCCCCNC(=O)COc2cccc3c2C(=O)N(C2CCC(=O)NC2=O)C3=O)-n2c(C)nnc21 (some centres unmarked) [dBET26] | – | 7020 nM | 40% | Dmax [2, 3]: 39.9%
22 | Cc1sc2c(c1C)C(c1ccc(Cl)cc1)=N[C@@H](CC(=O)NCCCCNC(=O)CNc1cccc3c1CN(C1CCC(=O)NC1=O)C3=O)c1nnc(C)n1-2 (some centres unmarked) [dBET35] | – | 372 nM | 12% | Dmax [2, 3]: 11.7%
23 | Cc1sc2c(c1C)C(c1ccc(Cl)cc1)=N[C@@H](CC(=O)NCCCCCC(=O)NCc1cccc3c1C(=O)N(C1CCC(=O)NC1=O)C3=O)c1nnc(C)n1-2 (some centres unmarked) [dBET37] | – | 1020 nM | 46% | Dmax [2, 3]: 46.4%
24 | Cc1sc2c(c1C)C(c1ccc(Cl)cc1)=N[C@@H](CC(=O)NCCCOCCCNC(=O)COc1cccc3c1C(=O)N(C1CCC(=O)NC1=O)C3=O)c1nnc(C)n1-2 (some centres unmarked) [dBET38] | – | 770 nM | – | –
25 | Cc1sc2c(c1C)C(c1ccc(Cl)cc1)=N[C@@H](CC(=O)NCCOCCOCCOc1cccc3c1C(=O)N(C1CCC(=O)NC1=O)C3=O)c1nnc(C)n1-2 (some centres unmarked) [dBET40] | – | 299 nM | < 10% | –
26 | Cc1sc2c(c1C)C(c1ccc(Cl)cc1)=N[C@@H](CC(=O)NCc1ccc(CNC(=O)COc3cccc4c3C(=O)N(C3CCC(=O)NC3=O)C4=O)cc1)c1nnc(C)n1-2 (some centres unmarked) [dBET41] | – | 726 nM | – | –
27 | Cc1sc2c(c1C)C(c1ccc(Cl)cc1)=N[C@@H](CC(=O)NCCCCC(=O)Nc1cccc3c1CN(C1CCC(=O)NC1=O)C3=O)c1nnc(C)n1-2 (some centres unmarked) [dBET42] | – | 7720 nM | 10% | Dmax [2, 3]: 10%
28 | Cc1sc2c(c1C)C(c1ccc(Cl)cc1)=N[C@@H](CC(=O)NCCCCCCC(=O)Nc1cccc3c1CN(C1CCC(=O)NC1=O)C3=O)c1nnc(C)n1-2 (some centres unmarked) [dBET43] | – | 2250 nM | 13% | Dmax [2, 3]: 13%
29 | Cc1sc2c(c1C)C(c1ccc(Cl)cc1)=N[C@@H](CC(=O)NCCCCCCCC(=O)Nc1cccc3c1CN(C1CCC(=O)NC1=O)C3=O)c1nnc(C)n1-2 (some centres unmarked) [dBET44] | – | 719 nM | < 10% | –
30 | COc1cc(C(=O)NCCCCCCCCNC(=O)COc2cccc3c2C(=O)N(C2CCC(=O)NC2=O)C3=O)ccc1Nc1ccc2c(n1)N(C1CCCC1)[C@H](C)C(=O)N2C (some centres unmarked) [dBET45] | – | 3450 nM | – | –
31 | COc1cc(C(=O)NCCCOCCOCCOCCCNC(=O)COc2cccc3c2C(=O)N(C2CCC(=O)NC2=O)C3=O)ccc1Nc1ccc2c(n1)N(C1CCCC1)[C@H](C)C(=O)N2C (some centres unmarked) [dBET46] | – | 9450 nM | – | –
